Data from patent publication US20240091254A1, “WNT AGONISTS FOR PREVENTION OF CANCER” (ACADEMISH MEDISCH CENTRUM, priority 2021, published 2024).

Legend:
[1] = test system: intestinal adenomas; test: Long term adenoma formation in Lgr5-CreErt2;Apcfl/fl mice; assay type: in vivo, mouse; conditions: LiCl pre-treatment and maintenance, 60 days after induction
Protocol: Lgr5-EGFP-IRES-Cre^ERT2 Villin-Cre^ERT2, Rosa26mTmG, Apc^fl/fl and Kras^G12D mice have been described earlier^30-34. All in vivo experiments were approved by the animal experimentation committee at the Amsterdam UMC—location Academic Medical Center in Amsterdam under nationally registered licence number AVD1180020172125 and performed according to national guidelines. Mice were housed in a 12 hour light/12 hour dark cycle, with temperatures between 20-24° C. and 40-70% humidity. For short term assays, both male and female mice were used. For long term assays, only females were used to prevent the risk of preliminary dropout due to fighting male mice. All mice were between 6-12 weeks old at the start of the experiments. For all mouse experiments, sufficient sample sizes were determined based on previous studies with a similar study design^3,35. Experimental animals were randomly assigned to the control or lithium treated groups, clone sizes and adenoma counts were scored blindly. […] Mouse discomfort during tumour formation assays was closely monitored, and endpoints were determined as <15% weight loss within 2 days or a mouse grimace scale (MGS) score<3. […] After 60 days, intestines were removed and polyps were counted macroscopically.

[2] = test system: WT organoids; test: Murine WT intestinal organoids incubated with conditioned medium or recombinant Wnt antagonists (expansion, clonogenicity); assay type: cell-based, mouse; conditions: WT organoids, Apc-/- CM, 5 mM LiCl
Protocol: Murine intestinal crypts were isolated from Lgr5-EGFP-IRES-Cre^ERT2, Lgr5-EGFP-IRES-Cre^ERT2;Ape/or Villin-Cre^ERT2;Apc^fl/fl mice as described by Sato et al.^35. In short, intestines were removed from the mouse and washed thoroughly with ice-cold PBS. Next, the intestine was opened longitudinally and the villi were gently scraped off by a glass cover slide. The intestine was cut into pieces of 5×5 mm and incubated in 2 mM EDTA solution for 30 min. at 4° C. After removal of the EDTA, the crypts were resuspended in ice-cold 1% FCS in PBS by vigorously shaking the tube and passing the supernatant through a 70 µm strainer. Isolated crypts were resuspended in Matrigel® (Corning) and seeded in pre-heated 24-well plates, supplemented with basal organoid medium consisting of advanced DMEM/F12 medium (Gibco) containing 100× N2 and 50× B27 supplements, 100× Glutamax, 5 mM HEPES, 1 mM N-acetyl-L-cysteine (Sigma), and 100× antibiotic/antimycotic (all Gibco). The basal organoid medium was freshly supplemented with the following growth factors: mouse EGF 50 ng/ml (TEBU-BIO), R-spondin (conditioned medium), Noggin (conditioned medium). The first two days after crypt isolation CHIR99021 (Axon Medchem) and ROCK inhibitor (Sigma) was added to the medium. Ctnnb1^S organoids expressing a constitutive active variant of β-catenin were generated as described by Adam et al.^36. For in vitro recombination of loxP flanked alleles, 1 μM 40H-Tamoxifen (Sigma) was added to the medium. Recombination of the Apc gene was validated by digital droplet PCR (Bio-Rad) using EvaGreen® Supermix (Bio-Rad). Lgr5-EGFP-IRES-Cre^ERT2 organoids, referred to as wild type (WT) organoids, were stably transduced with a red fluorescent mCherry construct (LeGO-C2, Addgene #27399). The in vitro recombined Lgr5-EGFP-IRES-Cre^ERT2;Apc^fl/fl, referred to as Apc^−/−, were stably transduced with a green fluorescent Venus construct (LeGO-V2, Addgene #27340). During competition assays, organoids were plated in equal numbers in 24-well plates and full wells were scanned over time by the EVOS FL Cell Imaging System (Thermo Scientific). Conditioned medium (CM) was taken from 2-3 day old WT or Apc^−/− organoid cultures and freshly supplemented with growth factors R-spondin, Noggin and mEGF. During the competition assays the medium (normal and conditioned) was replaced every other day to minimize effects of medium depletion. To assess the effect of medium depletion, CM was 10× concentrated using 10 kDa Amicon® centrifugal filters (Millipore) and added to fresh ENR medium as 1:10. […] Recombinant proteins NOTUM (2 μg/mL, R&D, 9150-NO-050), WIF1 (5 μg/mL, R&D, 135-WF-050) and DKK2 (1 μg/mL, R&D, 2435-DKB-010) were freshly added to the culture medium, medium was refreshed every other day.

**Q.** Which “Adenoma formation (number of adenomas)” value [1] does the source give for `[Cl-].[Li+]` [LiCl, lithium chloride] here?
**A.** The value was “markedly reduced adenoma formation in all segments of the intestine”.

**Q.** What about the “Resistance to Apc-/- CM induced reduction in proliferation and clonogenicity” value [2] of the same compound?
**A.** The value was “resistant to the Apc^−/− CM induced reduction in proliferation and clonogenicity”.
